From patent US20140038889A1, “Modulators Of The GPR119 Receptor And The Treatment Of Disorders Related Thereto” (ARENA PHARMACEUTICALS, INC., priority 2011, published 2014)
≈ marks a conversion by molar mass, not a printed value. Entries after “also recorded” stand apart in the source; their conditions may differ. Counter-ions that a name gives are not always drawn.

Tests used:
Male 129SVE mice [1] = assay: GIP release in male 129SVE mice (plasma total GIP, ELISA); assay type: in vivo; conditions: 3 or 30 mg/kg p.o., 45 min
Method: Male 129SVE mice (approximately 8 weeks old) were fasted for 18 h and randomly grouped (n=6) to receive a GPR119 agonist (Compound 1) at 3 or 30 mg/kg body weight. Compound 1 was delivered orally via a gavage needle (4 mL/kg), and after 45 min, a blood sample was collected to determine plasma total GIP levels. A separate control group received vehicle (PET (80% PEG:10% Ethanol:10% Tween80™)). Plasma GIP levels were determined using a GIP (total) ELISA kit from Millipore.

Male SD rats = assay: Gastric emptying in male SD rats (stomach content 6 h post-dosing); assay type: in vivo; conditions: SD rats, 3, 10 or 30 mg/kg orally
Method: Male SD rats were fasted for 18 h and randomly grouped (n=5). Fasted rats were allowed to access food for 30 min, and the amount of food consumed was recorded for each rat. At the end of the 30 min food intake, rats were put in cages without food and water, and dosed with Compound 1 at 3, 10, or 30 mg/kg, or vehicle control (20% HPCD) orally, or with exendin-4 (Ex-4) at 100 μg/kg i.p. Six hours post-dosing, rats were euthanized with CO2, and stomach content was determined.

Solubility of Compound 1 = assay type: physicochemical
Method: To a solution of 5-fluoro-4-(2-methyl-6-(methylsulfonyl)pyridin-3-yloxy)-6-(piperidin-4-yloxy)pyrimidine hydrochloride (200 mg, 0.477 mmol) and 2,5-dioxopyrrolidin-1-yl 1-methylcyclopropyl carbonate (247 mg, 1.16 mmol) in DCM (3.5 mL) was added triethylamine (0.333 mL, 2.387 mmol). The reaction mixture was stirred at room temperature for 2 h. The mixture was concentrated under reduced pressure and the residue was purified by silica gel flash column chromatography to give the title compound as a white solid (183 mg, 80% yield). Exact mass calculated for C21H25FN4O6S: 480.15. found: LCMS m/z=481.2 [M+H]^+; ^1H NMR (400 MHz, CDCl3) δ ppm 0.63-0.66 (m, 2H), 0.87-0.90 (m, 2H), 1.56 (s, 3H), 1.82-1.84 (m, 2H), 2.02-2.04 (m, 2H), 2.55 (s, 3H), 3.35 (s, 3H), 3.28-3.37 (m, 2H), 3.78-3.79 (m, 2H), 5.36-5.40 (m, 1H), 7.68 (d, J=12 Hz, 1H), 8.01 (d, J=8 Hz, 1H), 8.07 (s, 1H). Solubility: <0.001 mg/mL (H2O); 2.758 mg/mL (20% HPCD).

Male 129SVE mice [2] = assay: Oral glucose tolerance test (oGTT) in male 129SVE mice; assay type: in vivo; conditions: for Plasma Glucose, Mean: n=6
Method: Male 129SVE mice (approximately 8 weeks old) were fasted for 18 h and randomly grouped (n=6) to receive a GPR119 agonist (Compound 1) at 3, or 10 mg/kg body weight. Compound 1 was delivered orally via a gavage needle (p.o., volume at 4 mL/kg) 30 minutes prior to glucose bolus (3 g/kg) (time=−30 min in FIG. 1), with a separate group receiving vehicle (20% hydroxypropyl-beta-cyclodextrin (HPCD) as a control. At time 0 min the glucose bolus was administered. Levels of blood glucose were assessed using a glucometer (One-Touch Ultra™, LifeScan) at time −30 min (prior to compound administration), at 0 min (when the glucose bolus was given), and at 20, 40, 60, 120 min post glucose bolus. The plasma glucose level (Table A) and glucose excursion curve (FIG. 1) are shown. Glucose excursion reduction (area under the curve (AUC)) in compound-treated animals relative to vehicle control is shown in FIG. 2.

GPR119 receptor = molecular target: T1, GPR119 receptor (Homo sapiens, UniProt Q8TDV5); assay: HTRF cAMP detection assay in CHO-K1 cells stably expressing the GPR119 receptor; assay type: cell-based
T1 construct: expressed in transfected cells
T1 sequence (Q8TDV5 2-335): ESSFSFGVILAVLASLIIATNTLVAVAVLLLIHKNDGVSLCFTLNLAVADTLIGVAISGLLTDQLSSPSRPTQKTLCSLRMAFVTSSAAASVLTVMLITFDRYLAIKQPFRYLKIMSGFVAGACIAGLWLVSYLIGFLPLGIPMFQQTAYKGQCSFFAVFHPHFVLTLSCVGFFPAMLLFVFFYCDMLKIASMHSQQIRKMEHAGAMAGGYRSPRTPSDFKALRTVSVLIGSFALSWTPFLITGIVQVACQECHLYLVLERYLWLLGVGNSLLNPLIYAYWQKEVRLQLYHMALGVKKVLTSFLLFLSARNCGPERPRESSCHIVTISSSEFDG
Method: GPR119 agonist, Compound 1, was evaluated in an HTRF® cAMP detection assay (Cisbio, cAMP Dynamic 2 Assay Kit; #62AM4PEJ) according to the manufacturer's instructions using CHO-K1 cells stably expressing the GPR119 receptor. CHO-K1 cells were transduced with a lentiviral vector encoding the nucleotide sequence of GPR119 (NCBI mRNA and protein reference sequences: NM_178471.2 & NP_848566). The N-terminus of the GPR119 nucleotide sequence was modified to replace the first, methionine-coding, codon with a nucleotide sequence coding for a standard, nine amino acid, hemagglutinin tag. Following transduction, cells expressing the GPR119 receptor were isolated and a single clone was isolated following standard dilution-cloning procedures. On the day of the assay, cultured CHO-GPR119 cells were harvested, suspended in assay buffer and plated into 384-well assay plates (PerkinElmer® Proxiplate® #6008280) at a density of 2,000 cells per well. A cAMP standard curve was added to each plate. Compound 1 was dissolved in DMSO, serially diluted in DMSO and then diluted in assay buffer before addition to the cells. Compound 1 was evaluated in triplicate, using 10-point, 5-fold serial dilutions starting at 10 μM. […] Plates were then incubated at room temperature for 1 h prior to reading. Time-resolved fluorescence measurements were collected on PerkinElmer Envision™ or BMG Pherastar™ microplate readers. […]

Male ZDF rats = assay: Oral glucose tolerance test (oGTT) in male ZDF rats; assay type: in vivo; conditions: for % Inhibition of Glucose Excursion: AUC relative to vehicle control, ZDF rats
Method: Male ZDF rats were fasted for 18 h and randomly grouped (n=6) to receive the GPR119 agonist Compound 1(3 or 10 mg/kg), the control compound, Januvia (3 mg/kg), or a combination of Compound 1(3 mg/kg) and Januvia (3 mg/kg). The compounds were delivered orally via a gavage needle (p.o., volume 4 mL/kg) 60 min prior to glucose bolus (3 g/kg) (time=−60 min in FIG. 4), with a separate group receiving vehicle (20% hydroxypropyl-beta-cyclodextrin (HPCD)) as control. At time 0 min, a glucose bolus was administered. Levels of blood glucose were assessed using a glucometer (One-Touch Ultra™, LifeScan) at time −60 min (prior to compound administration), at 0 min (at time when glucose bolus was given), and at 30, 60, 90, and 120 min post glucose bolus. The plasma glucose excursion curve (FIG. 4) is shown.

humans = conditions: human studies, infusion, over 24 hours; cited from earlier work
[3] = 3 mg/kg p.o. 60 min prior to glucose bolus (3 g/kg)

Molecule: Cc1nc(S(C)(=O)=O)ccc1Oc1ncnc(OC2CCN(C(=O)OC3(C)CC3)CC2)c1F [Compound 1, 1-methylcyclopropyl 4-(5-fluoro-6-(2-methyl-6-(methylsulfonyl)pyridin-3-yloxy)pyrimidin-4-yloxy)piperidine-1-carboxylate]
- Release of GIP (plasma total GIP, in words) (Male 129SVE mice [1]): stimulates the release of GIP
- Effect on gastric emptying (in words) (Male SD rats): had an effect on gastric emptying at high dosage (30 mg/kg), but that effect was less pronounced than the positive control, Ex-4
- solubility (Solubility of Compound 1; 20% HPCD, aqueous with cosolvent or surfactant or cyclodextrin): 2760 µg/mL (≈ 5.74 mM)
- solubility (Solubility of Compound 1; water, H2O): < 1 µg/mL
- Plasma Glucose, Mean (Male 129SVE mice [2]; 3 mg/kg p.o., 0 min relative to glucose bolus): 92.0 mg/dL
- Plasma Glucose, Mean (Male 129SVE mice [2]; 3 mg/kg p.o., 20 min post glucose bolus (3 g/kg)): 207.0 mg/dL
- Plasma Glucose, Mean (Male 129SVE mice [2]; 3 mg/kg p.o., 40 min post glucose bolus (3 g/kg)): 280.6667 mg/dL
- Plasma Glucose, Mean (Male 129SVE mice [2]; 3 mg/kg p.o., 60 min post glucose bolus (3 g/kg)): 248.8333 mg/dL
- Plasma Glucose, Mean (Male 129SVE mice [2]; 3 mg/kg p.o., 120 min post glucose bolus (3 g/kg)): 161.8333 mg/dL
- Plasma Glucose, Mean (Male 129SVE mice [2]; 3 mg/kg p.o., -30 min relative to glucose bolus (prior to compound administration)): 75.17 mg/dL
- Plasma Glucose, Mean (Male 129SVE mice [2]; 10 mg/kg p.o., 0 min relative to glucose bolus): 94.5 mg/dL
- Plasma Glucose, Mean (Male 129SVE mice [2]; 10 mg/kg p.o., 20 min post glucose bolus (3 g/kg)): 190.3333 mg/dL
- Plasma Glucose, Mean (Male 129SVE mice [2]; 10 mg/kg p.o., 40 min post glucose bolus (3 g/kg)): 229.6667 mg/dL
- Plasma Glucose, Mean (Male 129SVE mice [2]; 10 mg/kg p.o., 60 min post glucose bolus (3 g/kg)): 199.6667 mg/dL
- Plasma Glucose, Mean (Male 129SVE mice [2]; 10 mg/kg p.o., 120 min post glucose bolus (3 g/kg)): 150.6667 mg/dL
- Plasma Glucose, Mean (Male 129SVE mice [2]; 10 mg/kg p.o., -30 min relative to glucose bolus (prior to compound administration)): 71.5 mg/dL
- Effect on blood glucose after challenge with glucose (in words) (Male 129SVE mice [2]; male 129SVE mice, 3 or 10 mg/kg p.o.): lowered blood glucose
- Effect on plasma glucose levels in oGTT (in words) (Male 129SVE mice [2]; male 129SVE mice, dose of 10 mg/kg): significantly reduced plasma glucose levels
- Agonist activity at GPR119 (in words) (GPR119 receptor): potent and selective agonist; also recorded: full agonist
- EC50 (GPR119 receptor; CHO-K1 cells stably expressing GPR119, 1 h incubation): 14.9 nM
- % Inhibition of Glucose Excursion (Male ZDF rats; [3]): 14.8%
- % Inhibition of Glucose Excursion (Male ZDF rats; 10 mg/kg p.o. 60 min prior to glucose bolus (3 g/kg)): 26.2%
- Effect on blood glucose after a challenge with glucose (in words) (Male ZDF rats; diabetic ZDF rats, 3 or 10 mg/kg p.o.): lowered blood glucose

Molecule: PYY3-36: form of Peptide YY generated from PYY1-36 by cleavage of the N-terminal Tyr and Pro residues by DPP-IV
- Reduction of food intake (humans): 33%

Molecule: N[C@@H](CC(=O)N1CCn2c(nnc2C(F)(F)F)C1)Cc1cc(F)c(F)cc1F [Januvia, dihydrogenphosphate salt of 3(R)-amino-1-[3-(trifluoromethyl)-5,6,7,8-tetrahydro[1,2,4]triazolo[4,3-a]pyrazin-7-yl]-4-(2,4,5-trifluorophenyl)butan-1-one, reference compound]
- % Inhibition of Glucose Excursion (Male ZDF rats; [3]): 57.0%
